Values of other authors in patent publication US20230382903A1, “SMALL MOLECULE MODULATORS OF GP130 SIGNALING PATHWAYS, TOPICAL FORMULATIONS AND METHOD OF USE THEREOF” (CarthroniX, Inc., priority 2020, published 2023).

What was measured:
cartilage degeneration = settings: rat model of OA
gp130 = target: T1, gp130 (Homo sapiens, UniProt P40189)
T1 sequence (P40189 23-918): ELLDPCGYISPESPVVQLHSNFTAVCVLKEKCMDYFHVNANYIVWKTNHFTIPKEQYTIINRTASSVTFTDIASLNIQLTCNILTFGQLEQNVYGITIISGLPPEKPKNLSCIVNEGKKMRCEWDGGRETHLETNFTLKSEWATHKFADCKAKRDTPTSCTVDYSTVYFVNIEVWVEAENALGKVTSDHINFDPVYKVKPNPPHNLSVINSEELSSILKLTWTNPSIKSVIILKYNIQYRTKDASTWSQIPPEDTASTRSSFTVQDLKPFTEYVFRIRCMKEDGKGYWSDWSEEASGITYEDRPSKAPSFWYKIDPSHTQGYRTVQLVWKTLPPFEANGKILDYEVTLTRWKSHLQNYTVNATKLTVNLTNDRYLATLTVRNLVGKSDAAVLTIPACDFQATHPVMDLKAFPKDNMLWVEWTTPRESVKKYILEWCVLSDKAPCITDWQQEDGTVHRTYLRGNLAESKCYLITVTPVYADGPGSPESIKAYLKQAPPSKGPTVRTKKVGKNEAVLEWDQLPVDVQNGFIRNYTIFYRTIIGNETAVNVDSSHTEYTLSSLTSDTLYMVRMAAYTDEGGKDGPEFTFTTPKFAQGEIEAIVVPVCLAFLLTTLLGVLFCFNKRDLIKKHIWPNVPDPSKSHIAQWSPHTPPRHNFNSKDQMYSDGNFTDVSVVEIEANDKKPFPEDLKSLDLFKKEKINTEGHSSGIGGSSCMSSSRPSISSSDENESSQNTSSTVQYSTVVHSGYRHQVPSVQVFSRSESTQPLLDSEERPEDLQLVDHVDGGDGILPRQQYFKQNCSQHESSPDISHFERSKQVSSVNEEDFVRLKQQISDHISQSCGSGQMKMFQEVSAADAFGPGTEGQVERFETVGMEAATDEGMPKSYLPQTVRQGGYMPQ

For `Brc1ccc(Nc2nc(-c3ccccc3)cs2)cc1` [RCGD 423], the “prevention of cartilage degeneration” value (cartilage degeneration) is listed as “remarkable ability to prevent cartilage degeneration”, the “interaction with gp130” value (gp130; in vitro) is listed as “interacts with the extracellular region of gp130” and the “formation of gp130 homodimers” value (gp130; ligand-independent) is listed as “promotes the formation of active, ligand-independent gp130 homodimers”.
